Assay results: US11319303B2 (WIGEN BIOMEDICINE TECHNOLOGY (SHANGHAI) CO., LTD., priority 2017, dated 2022)

Biological target: LC3B (Homo sapiens, UniProt Q9GZQ8)
Assay: Fluorescence Polarization (FP) Assay: displacement of FITC-labeled peptide from GST-LC3B
Format: binding
Conditions: not given
Method: The compounds of the present invention for regulating the autophagy-related protein LC3B were tested by Fluorescence Polarization (FP) Assay.
Fluorescence Polarization (FP) Assay Test

Row | SMILES | IC50
1 | CN(C)CCNC=C1C(=O)CC(c2cccc(F)c2F)CC1=O (stereo not shown) [Compound 304, 5-(2,3-difluorophenyl)-2-(((2-(dimethylamino)ethyl)amino)methylene) cyclohexane-1,3-dione] | < 3 µM

Same assay, conditions: Fluorescence Polarization assay; GST-LC3B 180 nM, FITC-labeled peptide 18 nM, 25° C.; read-out: IC50

Row | IC50 | SMILES
2 | < 3 µM | CN(C)C=C1C(=O)CC(c2cccc3[nH]ccc23)CC1=O (stereo not shown) [Compound 271, 2-((dimethylamino)methylene)-5-(1H-indol-4-yl)cyclohexane-1,3-dione]
3 | 3 to 15 µM | CN(C)C=C1C(=O)CC(Cc2ccccc2)CC1=O (stereo not shown) [Compound 272, 5-benzyl-2-((dimethylamino)methylene) cyclohexane-1,3-dione]
4 | 15 to 100 µM | CC(C)CNC(=O)C1CC(=O)C(=CN(C)C)C(=O)C1 (stereo not shown) [Compound 273, 4-((dimethylamino)methylene)-N-isobutyl-3,5-dioxocyclohexane-1-carboxamide]
5 | 15 to 100 µM | CCCNC(=O)C1CC(=O)C(=CN(C)C)C(=O)C1 (stereo not shown) [Compound 274, 4-((dimethylamino)methylene)-3,5-dioxo-N-propylcyclohexane-1-carboxamide]
6 | 15 to 100 µM | CC(C)CC1CC(=O)C(=CN(C)C)C(=O)C1 (stereo not shown) [Compound 276, 2-((dimethylamino)methylene)-5-isobutylcyclo-hexane-1,3-dione]
7 | < 3 µM | CN(C)C=C1C(=O)CC(c2cccc3ccccc23)CC1=O (stereo not shown) [Compound 277, 2-((dimethylamino)methylene)-5-(naphthalen-1-yl)cyclohexane-1,3-dione]
8 | < 3 µM | CN(C)C=C1C(=O)CC(c2ccc3ccccc3c2)CC1=O (stereo not shown) [Compound 278, 2-((dimethylamino)methylene)-5-(naphthalen-2-yl)cyclohexane-1,3-dione]
9 | 3 to 15 µM | CCCCn1cccc1C1CC(=O)C(=CN(C)C)C(=O)C1 (stereo not shown) [Compound 279, 5-(1-butyl-1H-pyrrol-2-yl)-2-((dimethylamino)methylene) cyclohexane-1,3-dione]
10 | < 3 µM | CN(C)C=C1C(=O)CC(c2cccc3c2CCCC3)CC1=O (stereo not shown) [Compound 280, 2-((dimethylamino)methylene)-5-(5,6,7,8-tetrahydro-naphthalen-1-yl)cyclohexane-1,3-dione]
11 | < 3 µM | CN(C)C=C1C(=O)CC(c2ccc3[nH]ccc3c2)CC1=O (stereo not shown) [Compound 281, 2-((dimethylamino)methylene)-5-(1H-indol-5-yl)cyclohexane-1,3-dione]
12 | < 3 µM | CN(C)C=C1C(=O)CC(c2csc3ccccc23)CC1=O (stereo not shown) [Compound 282, 5-(benzo[b]thiophen-3-yl)-2-((dimethylamino)methylene) cyclohexane-1,3-dione]
13 | < 3 µM | CN(C)C=C1C(=O)CC(c2c[nH]c3ccccc23)CC1=O (stereo not shown) [Compound 283, 2-((dimethylamino)methylene)-5-(1H-indol-3-yl)cyclohexane-1,3-dione]
14 | 3 to 15 µM | CC(C)Cn1cccc1C1CC(=O)C(=CN(C)C)C(=O)C1 (stereo not shown) [Compound 284, 2-((dimethylamino)methylene)-5-(1-isobutyl-1H-pyrrol-2-yl)cyclohexane-1,3-dione]
15 | 3 to 15 µM | CN(C)C=C1C(=O)CC(c2ccnc3ccccc23)CC1=O (stereo not shown) [Compound 285, 2-((dimethylamino)methylene)-5-(quinolin-4-yl)cyclohexane-1,3-dione]
16 | < 3 µM | CN(C)C=C1C(=O)CC(c2n[nH]c3ccccc23)CC1=O (stereo not shown) [Compound 286, 2-((dimethylamino)methylene)-5-(1H-indazol-3-yl)cyclohexane-1,3-dione]
17 | 3 to 15 µM | CN(C)C=C1C(=O)CC(c2cncc3ccccc23)CC1=O (stereo not shown) [Compound 287, 2-((dimethylamino)methylene)-5-(isoquinolin-4-yl)cyclohexane-1,3-dione]
18 | 3 to 15 µM | CN(C)C=C1C(=O)CC(c2cccn2Cc2ccccc2)CC1=O (stereo not shown) [Compound 288, 5-(1-benzyl-1H-pyrrol-2-yl)-2-((dimethylamino)methylene) cyclohexane-1,3-dione]
19 | 3 to 15 µM | Cc1ccccc1Cc1ccccc1C1CC(=O)C(=CN(C)C)C(=O)C1 (stereo not shown) [Compound 289, 2-((dimethylamino)methylene)-5-(2-(2-methylbenzyl)phenyl) cyclohexane-1,3-dione]
20 | 3 to 15 µM | Cc1cccc(Cc2ccccc2C2CC(=O)C(=CN(C)C)C(=O)C2)c1 (stereo not shown) [Compound 290, 2-((dimethylamino)methylene)-5-(2-(3-methylbenzyl)phenyl) cyclohexane-1,3-dione]
21 | 3 to 15 µM | Cc1ccc(Cc2ccccc2C2CC(=O)C(=CN(C)C)C(=O)C2)cc1 (stereo not shown) [Compound 291, 2-((dimethylamino)methylene)-5-(2-(4-methylbenzyl)phenyl) cyclohexane-1,3-dione]
22 | 3 to 15 µM | Cc1ccc2c(C3CC(=O)C(=CN(C)C)C(=O)C3)c[nH]c2c1 (stereo not shown) [Compound 293, 2-((dimethylamino)methylene)-5-(6-methyl-1H-indol-3-yl)cyclohexane-1,3-dione]

Row | IC50 | SMILES
23 | < 3 µM | CN(C)C=C1C(=O)CC(c2cn(C)c3ccccc23)CC1=O (stereo not shown) [Compound 294, 2-((dimethylamino)methylene)-5-(1-methyl-1H-indol-3-yl)cyclohexane-1,3-dione]
24 | 3 to 15 µM | CN(C)C=C1C(=O)CC(c2cccc3c2ccn3C)CC1=O (stereo not shown) [Compound 295, 2-((dimethylamino)methylene)-5-(1-methyl-1H-indol-4-yl)cyclohexane-1,3-dione]
25 | < 3 µM | Cc1[nH]c2ccccc2c1C1CC(=O)C(=CN(C)C)C(=O)C1 (stereo not shown) [Compound 296, 2-((dimethylamino)methylene)-5-(2-methyl-1H-indol-3-yl)cyclohexane-1,3-dione]
26 | < 3 µM | Cc1cccc2c(C3CC(=O)C(=CN(C)C)C(=O)C3)c[nH]c12 (stereo not shown) [Compound 297, 2-((dimethylamino)methylene)-5-(7-methyl-1H-indol-3-yl)cyclohexane-1,3-dione]
27 | < 3 µM | Cc1cccc2[nH]cc(C3CC(=O)C(=CN(C)C)C(=O)C3)c12 (stereo not shown) [Compound 298, 2-((dimethylamino)methylene)-5-(4-methyl-1H-indol-3-yl)cyclohexane-1,3-dione]
28 | 3 to 15 µM | Cc1ccc2[nH]cc(C3CC(=O)C(=CN(C)C)C(=O)C3)c2c1 (stereo not shown) [Compound 299, 2-((dimethylamino)methylene)-5-(5-methyl-1H-indol-3-yl)cyclohexane-1,3-dione]
29 | < 3 µM | CN(C)CCNC=C1C(=O)CC(c2ccccc2I)CC1=O (stereo not shown) [Compound 300, 2-(((2-(dimethylamino)ethyl)amino)methylene)-5-(2-iodophenyl) cyclohexane-1,3-dione]
30 | < 3 µM | CN(C)CCNC=C1C(=O)CC(c2ccc(F)cc2F)CC1=O (stereo not shown) [Compound 301, 5-(2,4-difluorophenyl)-2-(((2-(dimethylamino)ethyl)amino)methylene) cyclohexane-1,3-dione]
31 | < 3 µM | CN(C)CCNC=C1C(=O)CC(c2cc(F)ccc2F)CC1=O (stereo not shown) [Compound 302, 5-(2,5-difluorophenyl)-2-(((2-(dimethylamino)ethyl)amino)methylene) cyclohexane-1,3-dione]
32 | < 3 µM | CN(C)CCNC=C1C(=O)CC(c2ccc(F)cc2Br)CC1=O (stereo not shown) [Compound 305, 5-(2-bromo-4-fluorophenyl)-2-(((2-(dimethylamino)ethyl)amino)methylene) cyclohexane-1,3-dione]
33 | < 3 µM | CN(C)CCNC=C1C(=O)CC(c2c(F)cccc2Br)CC1=O (stereo not shown) [Compound 306, 5-(2-bromo-6-fluorophenyl)-2-(((2-(dimethylamino)ethyl)amino)methylene) cyclohexane-1,3-dione]
34 | 3 to 15 µM | O=C1CC(c2ccccc2)CC(=O)C1=CNC(=O)c1ccccn1 (stereo not shown) [Compound 307, N-((2,6-dioxo-4-phenylcyclo-hexylidene)methyl) picolinamide]
35 | 3 to 15 µM | CN(C)CCNC=C1C(=O)CC(c2ccccc2O)CC1=O (stereo not shown) [Compound 308, 2-(((2-(dimethylamino)ethyl)amino)methylene)-5-(2-hydroxyphenyl) cyclohexane-1,3-dione]
36 | < 3 µM | COc1ccccc1C1CC(=O)C(=CNCCN(C)C)C(=O)C1 (stereo not shown) [Compound 310, 2-(((2-(dimethylamino)ethyl)amino)methylene)-5-(2-methoxyphenyl) cyclohexane-1,3-dione]
37 | < 3 µM | CN(C)CCNC=C1C(=O)CC(c2cccc([N+](=O)[O-])c2)CC1=O (stereo not shown) [Compound 311, 2-(((2-(dimethylamino)ethyl)amino)methylene)-5-(3-nitrophenyl) cyclohexane-1,3-dione]
38 | < 3 µM | O=C1CC(c2ccc3cc[nH]c3c2)CC(=O)C1=CNCCN1CCN(CCO)CC1 (stereo not shown) [Compound 315, 2-(((2-(4-(2-hydroxyethyl)piperazin-1-yl)ethyl)amino)methylene)-5-(1H-indol-6-yl)cyclohexane-1,3-dione]
39 | 3 to 15 µM | O=C1Nc2ccc(C(F)(F)F)cc2C(=O)/C1=C/NCCN1CCN(CCO)CC1 [Compound 317, 3-(((2-(4-(2-hydroxyethyl)piperazin-1-yl)ethyl)amino)methylene)-6-(trifluoromethyl) quinoline-2,4(1H,3H)-dione]
40 | < 3 µM | O=C1Nc2c(cccc2[N+](=O)[O-])C(=O)/C1=C/NCCN1CCN(CCO)CC1 [Compound 318, 3-(((2-(4-(2-hydroxyethyl)piperazin-1-yl)ethyl)amino)methylene)-8-nitroquinoline-2,4(1H,3H)-dione]
41 | < 3 µM | O=C1CC(c2ccccc2C(F)(F)F)CC(=O)C1=CNCCN1CCN(CCO)CC1 (stereo not shown) [Compound 320, 2-(((2-(4-(2-hydroxyethyl)piperazin-1-yl)ethyl)amino)methylene)-5-(2-(trifluoromethyl)phenyl) cyclohexane-1,3-dione]
42 | 3 to 15 µM | O=C1Nc2c(cccc2-c2ccccc2)C(=O)/C1=C\NCCN1CCN(CCO)CC1 [Compound 321, 3-(((2-(4-(2-hydroxyethyl)piperazin-1-yl)ethyl)amino)methylene)-8-phenylquinoline-2,4(1H,3H)-dione]
43 | < 3 µM | O=C1CC(c2cccc3[nH]cc(Cl)c23)CC(=O)C1=CNCCN1CCN(CCO)CC1 (stereo not shown) [Compound 322, 5-(3-chloro-1H-indol-4-yl)-2-(((2-(4-(2-hydroxyethyl)piperazin-1-yl)ethyl)amino)methylene) cyclohexane-1,3-dione]
